In patent US10294248B2, “Beta-lactamase inhibitors” (VenatoRx Pharmaceuticals, Inc., priority 2013, dated 2019):

Columns and labels:
[1] = tested on: E. cloacae 144200 expressing Class C P99 AmpC; experiment: Broth microdilution MIC, E. cloacae 144200 p99 AmpC; type: cell-based; details: fixed 4 μg/mL ceftazidime; CAMHB, 16-20 hours at 37° C.
Summary of the method: (§1)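 Visual MIC readout follows 16-20 h incubation at 37° C. Final compound range spans 32 down to 0.25 μg/ml in two-fold steps, each well also carrying a β-lactam at a static 4 μg/ml, with inoculation done by the CLSI microdilution method in cation-adjusted Mueller Hinton broth.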

[2] = molecular target: T1, VIM-2 metallo-β-lactamase (Class B) (Pseudomonas aeruginosa, UniProt Q9K2N0); experiment: β-Lactamase inhibition, VIM-2; type: biochemical; details: nitrocefin 100 μM, 486 nm; 15 min preincubation at 37° C., PBS pH 7.4
T1 construct: made in house; host or cells: E. coli BL21(DE3)
Summary of the method: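 Metallo-β-lactamase VIM-2 activity was tracked spectrophotometrically at 486 nm with 100 μM nitrocefin over 10 min, following 15 min preincubation with compound at 37 °C; inhibition was calculated per concentration.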

[3] = molecular target: T2, p99 AmpC β-lactamase (Class C) (Enterobacter cloacae, UniProt P05364); experiment: β-Lactamase inhibition, p99 AmpC; type: biochemical
T2 construct: made in house; host or cells: E. coli BL21(DE3)
T2 sequence (P05364 21-381): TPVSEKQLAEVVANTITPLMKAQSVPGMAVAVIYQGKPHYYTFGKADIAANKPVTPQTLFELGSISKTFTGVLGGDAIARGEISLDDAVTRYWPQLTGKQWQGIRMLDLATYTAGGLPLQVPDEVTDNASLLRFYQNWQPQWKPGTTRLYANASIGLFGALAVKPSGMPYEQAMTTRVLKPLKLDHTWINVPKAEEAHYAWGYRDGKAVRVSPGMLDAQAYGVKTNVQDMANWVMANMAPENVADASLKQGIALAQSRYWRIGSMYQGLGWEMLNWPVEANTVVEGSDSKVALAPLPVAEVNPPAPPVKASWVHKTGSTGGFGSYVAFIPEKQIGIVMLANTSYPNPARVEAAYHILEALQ

[4] = molecular target: T3, KPC-2 β-lactamase (Class A carbapenemase) (Klebsiella pneumoniae, UniProt Q9F663); experiment: β-Lactamase inhibition, KPC-2; type: biochemical; details: imipenem substrate, 300 nm; 15 min preincubation at 37° C., PBS pH 7.4
T3 construct: made in house; host or cells: E. coli BL21(DE3)
T3 sequence (Q9F663 25-293, looked up): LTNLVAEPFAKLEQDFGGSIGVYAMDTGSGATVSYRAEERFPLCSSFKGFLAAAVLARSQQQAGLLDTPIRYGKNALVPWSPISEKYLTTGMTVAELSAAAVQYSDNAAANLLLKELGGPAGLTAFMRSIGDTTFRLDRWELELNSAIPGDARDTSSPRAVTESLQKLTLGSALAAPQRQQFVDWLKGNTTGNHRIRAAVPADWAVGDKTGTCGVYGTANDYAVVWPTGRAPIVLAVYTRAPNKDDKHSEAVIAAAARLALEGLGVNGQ
Summary of the method: (§2)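 Compounds are mixed with purified, untagged recombinant β-lactamase and held 15 min at 37 °C. Substrate is then added: nitrocefin (100 μM final) for OXA-1, imipenem for KPC-2, cefotaxime for SHV-5. Absorbance is followed immediately, and percent inhibition per concentration gives the IC50.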

[5] = tested on: S. aureus MSSA-7 producing penicillinase PC-1; experiment: Broth microdilution MIC, S. aureus MSSA-7 PC-1; type: cell-based; details: fixed 4 μg/mL piperacillin; CAMHB, 16-20 hours at 37° C.
Summary of the method: as §1

[6] = tested on: K. pneumoniae 156319 expressing KPC-3; experiment: Broth microdilution MIC, K. pneumoniae 156319 KPC-3; type: cell-based; details: fixed 4 μg/mL meropenem; CAMHB, 16-20 hours at 37° C.
Summary of the method: as §1

[7] = molecular target: T4, SHV-5 β-lactamase (Class A ESBL) (Klebsiella pneumoniae, UniProt P0A3M1); experiment: β-Lactamase inhibition, SHV-5; type: biochemical
T4 construct: made in house; host or cells: E. coli BL21(DE3)
T4 sequence (P0A3M1 22-286): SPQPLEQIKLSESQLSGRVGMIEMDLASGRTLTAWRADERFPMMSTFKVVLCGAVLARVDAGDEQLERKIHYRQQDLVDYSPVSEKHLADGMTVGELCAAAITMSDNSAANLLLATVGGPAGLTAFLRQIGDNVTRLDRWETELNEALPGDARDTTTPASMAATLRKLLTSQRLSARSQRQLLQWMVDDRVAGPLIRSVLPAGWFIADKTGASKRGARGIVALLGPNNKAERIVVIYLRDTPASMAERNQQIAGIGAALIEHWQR
Summary of the method: as §2

[8] = tested on: E. coli ESBL4 expressing CTX-M-15; experiment: Broth microdilution MIC, E. coli ESBL4 CTX-M-15; type: cell-based; details: fixed 4 μg/mL ceftazidime; CAMHB, 16-20 hours at 37° C.
Summary of the method: as §1

[9] = tested on: P. aeruginosa Ps296 expressing VIM-2; experiment: Broth microdilution MIC, P. aeruginosa Ps296 VIM-2; type: cell-based; details: fixed 4 μg/mL meropenem; CAMHB, 16-20 hours at 37° C.
Summary of the method: as §1

[10] = molecular target: T5, OXA-1 β-lactamase (Class D oxacillinase) (Escherichia coli, UniProt P13661); experiment: β-Lactamase inhibition, OXA-1; type: biochemical; details: nitrocefin 100 μM, 486 nm; 15 min preincubation at 37° C., PBS pH 7.4
T5 construct: made in house; host or cells: E. coli BL21(DE3)
T5 sequence (P13661 26-276): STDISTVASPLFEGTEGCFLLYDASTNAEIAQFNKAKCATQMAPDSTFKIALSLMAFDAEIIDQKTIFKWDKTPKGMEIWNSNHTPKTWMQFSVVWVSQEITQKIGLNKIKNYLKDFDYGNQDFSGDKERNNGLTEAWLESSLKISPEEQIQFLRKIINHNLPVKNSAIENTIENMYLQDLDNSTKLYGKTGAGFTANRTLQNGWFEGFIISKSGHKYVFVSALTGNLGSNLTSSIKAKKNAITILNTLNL
Summary of the method: as §2

[11] = tested on: K. pneumoniae A-1797 expressing KPC-2 and VIM-4; experiment: Broth microdilution MIC, K. pneumoniae A-1797 KPC-2/VIM-4; type: cell-based; details: fixed 4 μg/mL meropenem; CAMHB, 16-20 hours at 37° C.
Summary of the method: as §1

Structure (SMILES) | MIC of example compound in presence of fixed β-lactam: Fixed CAZ, E. cl. 144200 p99 AmpC [1] | IC50 [2] [nM] | IC50 [3] [nM] | IC50 [4] [nM] | MIC of example compound in presence of fixed β-lactam: Fixed Pip, S. aureus MSSA-7 PC-1 [5] | MIC of example compound in presence of fixed β-lactam: Fixed Mero, K. P. 156319 KPC-3 [6] | IC50 [7] [nM] | MIC of example compound in presence of fixed β-lactam: Fixed CAZ, E. coli ESBL4 CTX-M-15 [8] | MIC of example compound in presence of fixed β-lactam: Fixed Mero, P. aerug. Ps296 VIM-2 [9] | IC50 [10] [nM] | MIC of example compound in presence of fixed β-lactam: Fixed Mero, K. P. A-1797 KPC-2 VIM-4 [11]
O=C(COC1CCNCC1)N[C@H]1Cc2cccc(C(=O)O)c2OB1O [Example 39, 2-Hydroxy-3-[2-(piperidin-4-yloxy)-acetylamino]-3,4-dihydro-2H-benzo[e][1,2]oxaborinine-8-carboxylic acid] | C (the MIC in the presence of <4 μg/mL of a β-lactamase inhibitor) | 100 to 1000 | < 100 | < 100 | C (the MIC in the presence of <4 μg/mL of a β-lactamase inhibitor) | C (the MIC in the presence of <4 μg/mL of a β-lactamase inhibitor) | 100 to 1000 | C (the MIC in the presence of <4 μg/mL of a β-lactamase inhibitor) | C (the MIC in the presence of <4 μg/mL of a β-lactamase inhibitor) | < 100 | B (the MIC in the presence of between 8 and 32 μg/mL of a β-lactamase inhibitor)
O=C(CNC1CCNCC1)N[C@H]1Cc2cccc(C(=O)O)c2OB1O [Example 40, 2-Hydroxy-3-[2-(piperidin-4-ylamino)-acetylamino]-3,4-dihydro-2H-benzo[e][1,2]oxaborinine-8-carboxylic acid] | C (the MIC in the presence of <4 μg/mL of a β-lactamase inhibitor) | 100 to 1000 | < 100 | 100 to 1000 | C (the MIC in the presence of <4 μg/mL of a β-lactamase inhibitor) | B (the MIC in the presence of between 8 and 32 μg/mL of a β-lactamase inhibitor) | < 100 | C (the MIC in the presence of <4 μg/mL of a β-lactamase inhibitor) | C (the MIC in the presence of <4 μg/mL of a β-lactamase inhibitor) | < 100 | B (the MIC in the presence of between 8 and 32 μg/mL of a β-lactamase inhibitor)
NCCN1CCC(CC(=O)N[C@H]2Cc3cccc(C(=O)O)c3OB2O)CC1 [Example 41, 3-{2-[1-(2-Amino-ethyl)-piperidin-4-yl]-acetylamino}-2-hydroxy-3,4-dihydro-2H-benzo[e][1,2]oxaborinine-8-carboxylic acid] | C (the MIC in the presence of <4 μg/mL of a β-lactamase inhibitor) | 100 to 1000 | < 100 | < 100 | C (the MIC in the presence of <4 μg/mL of a β-lactamase inhibitor) | C (the MIC in the presence of <4 μg/mL of a β-lactamase inhibitor) | < 100 | C (the MIC in the presence of <4 μg/mL of a β-lactamase inhibitor) | C (the MIC in the presence of <4 μg/mL of a β-lactamase inhibitor) | < 100 | C (the MIC in the presence of <4 μg/mL of a β-lactamase inhibitor)
CN(CC(=O)N[C@H]1Cc2cccc(C(=O)O)c2OB1O)C1CCNCC1 [Example 43, 2-Hydroxy-3-[2-(methyl-piperidin-4-yl-amino)-acetylamino]-3,4-dihydro-2H-benzo[e][1,2]oxaborinine-8-carboxylic acid] | C (the MIC in the presence of <4 μg/mL of a β-lactamase inhibitor) | 100 to 1000 | < 100 | < 100 | C (the MIC in the presence of <4 μg/mL of a β-lactamase inhibitor) | C (the MIC in the presence of <4 μg/mL of a β-lactamase inhibitor) | < 100 | C (the MIC in the presence of <4 μg/mL of a β-lactamase inhibitor) | C (the MIC in the presence of <4 μg/mL of a β-lactamase inhibitor) | < 100 | C (the MIC in the presence of <4 μg/mL of a β-lactamase inhibitor)
O=C(O)c1cccc2c1OB(O)[C@@H](NC(=O)C1CCNCC1)C2 [Example 44, 2-Hydroxy-3-[(piperidine-4-carbonyl)-amino]-3,4-dihydro-2H-benzo[e][1,2]oxaborinine-8-carboxylic acid] | C (the MIC in the presence of <4 μg/mL of a β-lactamase inhibitor) | 10000 to 100000 | < 100 | < 100 | C (the MIC in the presence of <4 μg/mL of a β-lactamase inhibitor) | C (the MIC in the presence of <4 μg/mL of a β-lactamase inhibitor) | < 100 | C (the MIC in the presence of <4 μg/mL of a β-lactamase inhibitor) | A (an MIC of the fixed β-lactam antibiotic in the presence of >32 μg/mL of a β-lactamase inhibitor) | < 100 | A (an MIC of the fixed β-lactam antibiotic in the presence of >32 μg/mL of a β-lactamase inhibitor)
CN1CCC(CC(=O)N[C@H]2Cc3cccc(C(=O)O)c3OB2O)CC1 [Example 45, 2-Hydroxy-3-[2-(1-methyl-piperidin-4-yl)-acetylamino]-3,4-dihydro-2H-benzo[e][1,2]oxaborinine-8-carboxylic acid] | C (the MIC in the presence of <4 μg/mL of a β-lactamase inhibitor) | 100 to 1000 | < 100 | < 100 | B (the MIC in the presence of between 8 and 32 μg/mL of a β-lactamase inhibitor) | C (the MIC in the presence of <4 μg/mL of a β-lactamase inhibitor) | < 100 | C (the MIC in the presence of <4 μg/mL of a β-lactamase inhibitor) | C (the MIC in the presence of <4 μg/mL of a β-lactamase inhibitor) | 100 to 1000 | C (the MIC in the presence of <4 μg/mL of a β-lactamase inhibitor)
